Patent publication US20250236616A1, “IMMUNOMODULATING AZALIDES” (Zoetis Services LLC, priority 2021, published 2025)
“Also recorded” adds a separate entry of the source.

Tests used:
[1] = tested on: P. multocida; assay: MIC, P. multocida strains; format: cell-based; conditions: Pasteurella multocida
Excerpt: (§1) Primary screening of the compounds of the invention included the evaluation of antibacterial activity of analogs through determination of microbial inhibition concentration (MIC) as per CLSI guidelines. The screening panel included the relevant BRD pathogens: 1) M. haemolytica (e.g., 12726, 46571 and 49023, all AHDRCC; and 33396 (ATCC)); and 2) P. multocida (e.g., 34135 and 46572 (both AHDRCC) and 43137 (ATCC)). In some instances, H. somni (A700025K) pathogens were also included in the screening panel. The AHDRCC strains originated from the Zoetis BRD/SRD surveillance program and refer to the Animal Health Development and Research Culture Collection. In addition, the screen assessed S. aureus (29213 ATCC) as a representative Gram-positive isolate, E.faecalis (19433 ATCC) as a commensal gram-positive gastrointestinal bacterium and E. coli (100, 3110 and 25922 (ATCC)) for the evaluation of efflux potential. The screening panel BRD pathogens were assessed in determining antibacterial activity of the Formula (1) compounds.
(§2) All relevant BRD pathogens were initially screened at a top concentration of 64 μg/mL of a Formula (1) compound in an eleven-point dilution series. […] If an Example was purified further, the MICs moved […] essentially two dilutions across all strains tested in the screening panel.
(§3) In-Vitro MIC Model Compounds were analyzed for antibacterial activity against a panel of animal health specific gram-positive and gram-negative clinical strains by diluting compounds in DMSO to an appropriate stock concentration to determine the Minimal Inhibitory Concentration (MIC) via a semi-automated broth micro-dilution method (CLSI reference method) with QC strains and anti-microbial agent(s). Specifically, bacteria were grown overnight on TSA w/5% sheep blood agar plates and diluted in saline buffer to a McFarland Standard 0.5, then further diluted in cation-ion adjusted Mueller Hinton Broth to a final concentration of approximately 5×10^5 CFU/mL. 100 μL of inoculated media was added to 96-well plate(s) with 3 μL of serially diluted compound in each row. Depending on strain (see CLSI reference method), bacteria were incubated 18-22 hours at 35-37° C. in ambient air, with 5% CO2 or anaerobically (up to 48 hours).

[2] = tested on: S. aureus; assay: MIC, S. aureus; format: cell-based; conditions: Staphylococcus aureus; S. aureus 29213
Excerpt: as §1, §2, §3

[3] = tested on: lung tissue gene expression, upstream regulators; assay: Lung tissue RNA sequence analysis with ingenuity pathway analysis, murine P. multocida challenge; format: in vivo, mice; conditions: M9 32 mg/kg
Method: In one murine P. multocida intranasal challenge study, mice were administered tulathromycin (16 mg/kg; T02), M9 (32 mg/kg; T03), or ceftiofur (9 mg/kg; T04) by subcutaneous injection 18 hours after bacterial challenge (5×10^3 CFU/mouse) for lung tissue RNA sequence analysis. Survival at Day 7 was about 80%, 50%, and 90% for T02, T03, and T04, respectively, compared to placebo at 0%. Differential gene expression from total lung tissue RNA sequence analysis indicated at least 226 unique genes were up or down regulated (with significance) for T03. Output from ingenuity pathway analysis of these unique genes predicted major upstream regulators of the involved pathways. Data was analyzed based on the number of genes being modulated in the same direction that were associated with a given upstream regulator. An activation z-score of 2 or greater is considered significant and the direction change is indicated by + (activated) or -(inhibited). The top 5 pathways included: IL-9 signaling, glucocorticoid receptor signaling, prolactin signaling, JAK STAT signaling, and IL-17 signaling. The top 6 upstream regulators (activation z-score) included: lipopolysaccharide (−6.725), TNF (−4.669), IFNγ (−5.759), IL-1β (−5.947), STAT1 (−2.787), and poly rl: rC-RNA (−5.289). Even though this study was run in the murine model, the top upstream regulators identified as being modulated by M9 include an almost ubiquitous overlap with the pathways identified in the natural disease study as being key mediators in BRD, and therefore is modulating highly relevant pathways in BRD pathobiology.

[4] = tested on: natural bovine respiratory disease (BRD); assay: Natural bovine respiratory disease study, treatment failure; format: in vivo, beef calves; conditions: dosed on arrival to the feedlot, 14-day observation
[5] = tested on: CD163; assay: CD163 expression by flow cytometry, cattle; format: in vivo, bovine; conditions: monocytes/macrophages of whole blood
Method: CD163 Expression by Flow Cytometry-Fresh whole bovine blood samples were collected into EDTA vacutainer tubes, placed on ice and processed within two hours of collection. Blood was placed in 96 well round bottom plates at 30 μL per well, 5 μL of goat serum was added as a blocking reagent and the plate was rocked at 4° C. for approximately 15 minutes. To label cells, 10 μL of a master mix panel of antibodies including anti-CD14 (BioLegend #301854), anti-CD172a (BioRad #MCA2041C), anti-CD163 (Kingfisher #WSC0832B-100) and anti-CD16 (BioRad #MCA5665F), was added to the samples and returned to 4° C. (protected from light) for 30 minutes. Single stain controls were included for use in fluorescence compensation matrices. Red blood cells were removed by adding 200 μL of lysis buffer and incubating for 10 minutes at room temperature while rocking. The plate was then centrifuged at 270×g for three minutes and supernatant removed. This step was repeated until supernatant was clear. 200 μL of FACS buffer was added to each well to wash cells, centrifuged as above, resuspended in 80 μL of FACS buffer and read immediately on a digital FACS Canto II HTS (BD Bioscience) flow cytometer. Data was analyzed using FlowJo software (BD Bioscience). Macrophage subpopulations were determined using CD172, CD14, CD16 markers and assessed for expression of CD163. […]

[6] = P. multocida 46572, murine efficacy challenge strain

CC[C@H]1OC(=O)[C@H](C)[C@@H](O)[C@H](C)[C@@H](O[C@@H]2O[C@H](C)C[C@H](N(C)S(=O)(=O)c3ccccc3)[C@H]2Oc2ccc(OC)cc2)[C@](C)(O)C[C@@H](C)CN[C@H](C)[C@@H](O)[C@]1(C)O [Example A-9, N-((2S,3R,4S,6R)-2-(((2R,3S,4R,5R,8R,10R,11R,12S,13S,14R)-2-ethyl-3,4,10,13-tetrahydroxy-3,5,8,10, 12, 14-hexamethyl-15-oxo-1-oxa-6-azacyclopentadecan-11-yl)oxy)-3-(4-methoxyphenoxy)-6-methyltetrahydro-2H-pyran-4-yl)-N-methylbenzenesulfonamide]
MIC ([1]; P. multocida 43137): > 64 µg/mL | MIC [1, 6]: > 64 µg/mL | MIC [2]: > 64 µg/mL

CCCNC[C@]1(O)[C@H](C)O[C@@H](O[C@H]2[C@H](C)[C@@H](O[C@@H]3O[C@H](C)C[C@H](N(C)S(=O)(=O)c4ccc(C)cc4)[C@H]3O)[C@](C)(O)C[C@@H](C)CN[C@H](C)[C@@H](O)[C@](C)(O)[C@@H](CC)OC(=O)[C@@H]2C)C[C@@]1(C)OC [Example B-26, N-((2S,3R,4S,6R)-2-(((2R,3S,4R,5R,8R,10R,11R,12S,13S,14R)-2-ethyl-3,4,10-trihydroxy-13-(((2R,4R,5S,6S)-5-hydroxy-4-methoxy-4,6-dimethyl-5-((propylamino)methyl)tetrahydro-2H-pyran-2-yl)oxy)-3,5,8,10,12,14-hexamethyl-15-oxo-1-oxa-6-azacyclopentadecan-11-yl)oxy)-3-hydroxy-6-methyltetrahydro-2H-pyran-4-yl)-N,4-dimethylbenzenesulfonamide]
MIC ([1]; P. multocida 43137): > 64 µg/mL | MIC [1, 6]: > 64 µg/mL | MIC [2]: > 64 µg/mL

CCCNC[C@]1(O)[C@H](C)O[C@@H](O[C@H]2[C@H](C)[C@@H](O[C@@H]3O[C@H](C)C[C@H](N(C)S(=O)(=O)Nc4ccc(C(F)(F)F)cc4)[C@H]3O)[C@](C)(O)C[C@@H](C)CN[C@H](C)[C@@H](O)[C@](C)(O)[C@@H](CC)OC(=O)[C@@H]2C)C[C@@]1(C)OC [Example B-50, (2R,3S,4R,5R,8R,10R,11R,12S,13S, 14R)-2-ethyl-3,4,10-trihydroxy-13-[(2R,4R,5S,6S)-5-hydroxy-4-methoxy-4,6-dimethyl-5-(propylaminomethyl)oxan-2-yl]oxy-11-[(2S,3R,4S,6R)-3-hydroxy-6-methyl-4-[methyl-[[4-(trifluoromethyl)phenyl]sulfamoyl]amino]oxan-2-yl]oxy-3,5,8, 10, 12, 14-hexamethyl-15-oxo-1-oxa-6-azacyclopentadecane]
MIC ([1]; P. multocida 43137): > 64 µg/mL | MIC [1, 6]: > 64 µg/mL | MIC [2]: > 64 µg/mL

CC[C@H]1OC(=O)[C@H](C)[C@@H](O[C@H]2C[C@@](C)(OC)[C@](O)(CN3CCCCC3)[C@H](C)O2)[C@H](C)[C@@H](O[C@@H]2O[C@H](C)C[C@H](N(C)S(=O)(=O)c3ccc(Cl)cc3)[C@H]2O)[C@](C)(O)C[C@@H](C)CN[C@H](C)[C@@H](O)[C@]1(C)O [Example C-4, 4-chloro-N-((2S,3R,4S,6R)-2-(((2R,3S,4R,5R,8R,10R,11R,12S,13S,14R)-2-ethyl-3,4,10-trihydroxy-13-(((2R,4R,5S,6S)-5-hydroxy-4-methoxy-4,6-dimethyl-5-(piperidin-1-ylmethyl)tetrahydro-2H-pyran-2-yl)oxy)-3,5,8, 10, 12, 14-hexamethyl-15-oxo-1-oxa-6-azacyclopentadecan-11-yl)oxy)-3-hydroxy-6-methyltetrahydro-2H-pyran-4-yl)-N-methylbenzenesulfonamide]
MIC ([1]; P. multocida 43137): > 128 µg/mL | MIC [1, 6]: > 128 µg/mL | MIC [2]: > 128 µg/mL

CC[C@H]1OC(=O)[C@H](C)[C@@H](O[C@H]2C[C@@](C)(OC)[C@](O)(CN3CCCCC3)[C@H](C)O2)[C@H](C)[C@@H](O[C@@H]2O[C@H](C)C[C@H](N(C)S(=O)(=O)Nc3ccc(C(F)(F)F)cc3)[C@H]2O)[C@](C)(O)C[C@@H](C)CN[C@H](C)[C@@H](O)[C@]1(C)O [Example C-11, (2R,3S,4R,5R,8R,10R,11R,12S, 13S, 14R)-2-ethyl-3,4, 10-trihydroxy-13-[(2R,4R,5S,6S)-5-hydroxy-4-methoxy-4,6-dimethyl-5-(piperidin-1-ylmethyl)oxan-2-yl]oxy-11-[(2S,3R,4S,6R)-3-hydroxy-6-methyl-4-[methyl-[[4-(trifluoromethyl)phenyl]sulfamoyl]amino]oxan-2-yl]oxy-3,5,8, 10, 12, 14-hexamethyl-15-oxo-1-oxa-6-azacyclopentadecane]
MIC ([1]; P. multocida 43137): > 64 µg/mL | MIC [1, 6]: > 64 µg/mL | MIC [2]: > 64 µg/mL

CCCNC[C@]1(O)[C@H](C)O[C@@H](O[C@H]2[C@H](C)[C@@H](O[C@@H]3O[C@H](C)C[C@H](NC)[C@H]3O)[C@](C)(O)C[C@@H](C)CN[C@H](C)[C@@H](O)[C@](C)(O)[C@@H](CC)OC(=O)[C@@H]2C)C[C@@]1(C)OC [Example M9, (2R,3S,4R,5R,8R,10R,11R,12S,13S,14R)-2-ethyl-3,4, 10-trihydroxy-13-(((2R,4R,5S,6S)-5-hydroxy-4-methoxy-4,6-dimethyl-5-((propylamino)methyl)-tetrahydro-2H-pyran-2-yl)oxy)-11-(((2S,3R,4S,6R)-3-hydroxy-6-methyl-4-(methylamino)tetrahydro-2H-pyran-2-yl)oxy)-3,5,8,10,12,14-hexamethyl-1-oxa-6-azacyclopentadecan-15-one]
unique genes up or down regulated (with significance) ([3]; total lung tissue RNA sequence analysis): at least 226 | activation z-score, upstream regulator IFNγ ([3]; − = inhibited): −5.759 | activation z-score, upstream regulator IL-1β ([3]; − = inhibited): −5.947 | activation z-score, upstream regulator STAT1 ([3]; − = inhibited): −2.787 | activation z-score, upstream regulator TNF ([3]; − = inhibited): −4.669 | activation z-score, upstream regulator lipopolysaccharide ([3]; − = inhibited): −6.725 | activation z-score, upstream regulator poly rl: rC-RNA ([3]; − = inhibited): −5.289 | Percent failure ([4]; 5 mg/kg): 19.3% | Percent failure ([4]; 10 mg/kg): 8.8% | CD163 expression [5]: suppressed; also recorded: mitigates the pathologic increase in CD163 expression
